Reference: patent US7247725B2, “Gamma-aminoamide modulators of chemokine receptor activity” (Merck & Co., Inc., priority 2002, dated 2007)

Target: CCR-2 (Homo sapiens, UniProt P41597)
Assay: relative activity of separated diastereomers (assay not stated)
Settings: single isomers separated by chiral HPLC (ChiralPak OD); fast vs slow isomer

Sequence of CCR-2 (P41597 whole entry): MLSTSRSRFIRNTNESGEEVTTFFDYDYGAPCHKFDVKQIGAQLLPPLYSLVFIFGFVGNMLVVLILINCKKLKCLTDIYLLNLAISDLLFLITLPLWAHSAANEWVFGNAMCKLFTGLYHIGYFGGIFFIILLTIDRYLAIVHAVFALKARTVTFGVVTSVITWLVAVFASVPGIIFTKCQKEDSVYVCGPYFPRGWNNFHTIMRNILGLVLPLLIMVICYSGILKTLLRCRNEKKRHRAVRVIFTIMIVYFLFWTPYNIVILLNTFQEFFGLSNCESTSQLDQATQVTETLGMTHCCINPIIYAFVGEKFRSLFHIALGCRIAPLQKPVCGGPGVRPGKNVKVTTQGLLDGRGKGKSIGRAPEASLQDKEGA

| Structure (SMILES) | relative activity of the two diastereomers epimeric α to the amide carbonyl |
| --- | --- |
| CC(=O)Nc1nc([C@@H](CCN2CC[C@@]3(C=Cc4ccccc43)[C@@H](C)C2)C(=O)NCc2cc(C(F)(F)F)cc(C(F)(F)F)c2)cs1 [Example 52h-(R)] | less active |
| CC(=O)Nc1nc([C@H](CCN2CC[C@@]3(C=Cc4ccccc43)[C@@H](C)C2)C(=O)NCc2cc(C(F)(F)F)cc(C(F)(F)F)c2)cs1 [Example 52h-(S)] | more active |
